What was measured:
hROMK (hKir1.1) = hROMK (hKir1.1) (Homo sapiens (Human), UniProt P48048); assay: Thallium Flux Assay (ROMK channel functional thallium flux, FLIPR-Tetra); type: cell-based; settings: HEK293 cells stably expressing hROMK (hKir1.1)
Description: HEK293 cells stably expressing hROMK (hKir1.1) were grown at 37° C. in a 10% CO2 humidified incubator in complete growth media: Dulbecco's Modified Eagle Medium supplemented with non-essential amino acids, Penicillin/Streptomycin/Glutamine, G418 and FBS. At >80% confluency, aspirate the media from the flask and rinse with 10 mL Calcium/Magnesium-free PBS. Add 5 mL of 1× trypsin (prepared in Ca/Mg Free PBS) to T-225 flask and return flask to 37° C./CO2 incubator for 2-3 minutes. To dislodge the cell, gently bang the side of the flask with your hand. Triturate the cells completely and then transfer the cells to 25 mL complete media. Centrifuge at 1,500 rpm for 6 min followed by resuspension in complete growth media and determine cell concentration. For typical re-seeding, 4E6 cells/T-225 flask will attain>80% confluency in 4 days. Under ideal growth conditions and appropriate tissue culture practices, this cell line is stable for 40-45 passages.
• FluxOR™ Reagent (Component A) • FluxOR™ Assay Buffer (Component B)—10× Concentrate • PowerLoad™ Concentrate (Component C)—100× Concentrate • Probenecid (Component D)—Lyophilized sample is kept at −20° C. Water soluble, 100× after solubilization in 1 mL water. Store at 4° C. • FluxOR™ Chloride-free Buffer (Component E)—5× Concentrate • Potassium sulfate (K2SO4) Concentrate (Component F)—125 mM in water. Store at 4° C. • Thallium sulfate (Tl2SO4) Concentrate (Component G)—50 mM in water. Store at 4° C. • DMSO (dimethyl sulfoxide, Component H)—1 mL (100%) Reagent Preparation: FluxOR Working Solutions • 1000× FluxOR™ Reagent: Reconstitute a vial of component A in 100 μl DMSO; Mix well; Store 10 μl aliquots at −20° C. • 1× FluxOR™ Assay Buffer: Dilute Component B 10-fold with water; Adjust pH to 7.4 with Hepes/NaOH; Filter and store at 4° C. • Probenecid/Assay Buffer: 100 mL of 1× FluxOR™ Assay Buffer; 1 mL of reconstituted component D; Store at 4° C. • Loading Buffer (per microplate): 10 μl 1000× FluxOR™ Reagent; 100 μl component C; 10 mL Probenecid/Assay Buffer • Compound Buffer (per microplate): 20 mL Probenecid/Assay Buffer; 0.3 mM ouabain (10 mM ouabain in water can be stored in amber bottle/aluminum foil at room temperature); Test compound • 1× FluxOR™ Chloride-Free Buffer: Prepare 1× working solution in water. Can be stored at room temperature • Stimulant Buffer (prepared at 5× final concentration in 1× FluxOR™ Chloride-Free Buffer): 7.5 mM Thallium sulfate and 0.75 mM Potassium sulfate (to give a final assay concentration of 3 mM Thallium/0.3 mM Potassium). Store at 4° C. when not in use. If kept sterile, this solution is good for months. Assay Protocol—
The ROMK channel functional thallium flux assay is performed in 384 wells, using the FLIPR-Tetra instrument. HEK-hKir1.1 cells are seeded in Poly-D-Lysine microplates and kept in a 37° C.-10% CO2 incubator overnight. On the day of the experiment, the growth media is replaced with the FluxOR™ reagent loading buffer and incubated, protected from light, at ambient temperature (23-25° C.) for 90 min. The loading buffer is replaced with assay buffer±test compound followed by 30 min incubation at ambient temperature, where the Thallium/Potassium stimulant is added to the microplate.
• 1. Seed HEK-hKir1.1 cells (50 μl at 20,000 cells/well) in 384-well PDL coated Microplates • 2. Allow cells to adhere overnight in humidified 37° C./10% CO2 incubator • 3. Completely remove cell growth media from microplate and replace with 25 μl loading buffer • 4. Incubate Microplate at room temperature, protected form light, for 90 min • 5. Remove loading buffer and replace with 25 μl 1× Assay Buffer±test compound. • 6. Incubate microplate at room temperature, protected form light, for 30 min • 7. At FLIPR-Tetra 384: Add stimulant (Thallium/Potassium) solution to microplate and monitor fluorescence. Excitation=400 nm, Emission=460 & 580 nm. Collect data for ˜10 min. Data Calculation—

Kir1.1 (ROMK1) = Kir1.1 (ROMK1) (Homo sapiens (Human), UniProt P48048); assay: Electrophysiology Assay (whole cell voltage clamp, IonWorks Quattro); type: cell-based; settings: Chinese hamster ovary cells stably expressing Kir1.1; block during voltage step to 0 mV
Sequence of Kir1.1 (ROMK1) (P48048 whole entry): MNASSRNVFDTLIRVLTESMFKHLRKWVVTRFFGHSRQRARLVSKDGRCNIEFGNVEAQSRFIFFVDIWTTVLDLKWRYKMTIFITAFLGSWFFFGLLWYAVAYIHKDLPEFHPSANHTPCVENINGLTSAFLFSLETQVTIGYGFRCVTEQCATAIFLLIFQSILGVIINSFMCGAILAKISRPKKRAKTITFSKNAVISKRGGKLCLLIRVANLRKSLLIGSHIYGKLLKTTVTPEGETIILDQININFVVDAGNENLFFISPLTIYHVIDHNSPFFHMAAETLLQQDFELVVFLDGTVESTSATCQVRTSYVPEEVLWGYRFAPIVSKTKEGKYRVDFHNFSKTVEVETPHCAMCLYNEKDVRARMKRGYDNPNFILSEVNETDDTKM
Description: Block of Kir1.1 (ROMK1) currents was examined by whole cell voltage clamp (Hamill et. al. […] Prior to an experiment, Kir1.1 expression was induced by overnight incubation with 1 mM sodium butyrate. […] After centrifugation, the cell pellet was resuspended in approximately 4.0 mL of bath solution and placed in the IonWorks instrument. The intracellular solution consisted of (in mM): 80 K gluconate, 40 KCl, 20 KF, 3.2 MgCl2, 3 EGTA, 5 Hepes, pH 7.4. […] Amphotericin B (Sigma A-4888) was prepared as a 40 mg/mL solution in DMSO. Voltage protocols and current recordings were performed using the IonWorks HT software/hardware system. […] No correction for liquid junction potentials was used. The test pulse, consisting of a 100 ms step to 0 mV from a holding potential of −70 mV, followed by a 100 ms voltage ramp from −70 mV to +70 mV, was applied before and after a 6 min compound incubation period. Test compounds were prepared by diluting DMSO stock solutions into the bath solution at 3× the final concentration and placed in the instrument in 96-well polypropylene plates. Current amplitudes were measured using the IonWorks software. To assess compound potency, the fractional block during the voltage step to 0 mV was calculated in Microsoft Excel (Microsoft, Redmond, Calif.), and dose-response curves were fitted with Igor Pro 4.0 (WaveMetrics, Lake Oswego, Oreg.).

Sequence of hROMK (hKir1.1) (P48048 whole entry): as above

Row | Structure (SMILES) | IC50 (hROMK (hKir1.1)) [nM] | IC50 (Kir1.1 (ROMK1)) [nM]
1 | Cc1c([C@@H]2CN3CCN(C(=O)C4CCc5nc(-n6cnnn6)ncc54)C[C@@H]3CO2)ccc(F)c1C#N (single isomer, unassigned) [Example 2C] | 120 | 150
2 | Cc1c([C@@H]2CN3CCN(C(=O)C4CCc5nc(-n6cnnn6)ncc54)C[C@@H]3CO2)ccc(F)c1C#N (single isomer, unassigned) [Example 2D] | 130 | 100
3 | Cc1c([C@@H]2CN3CCN(C(=O)C4CCc5nc(-n6cnnn6)ncc54)C[C@H]3CO2)ccc(F)c1C#N (single isomer, unassigned) [Example 2E] | 130 | –
4 | Cc1c([C@@H]2CN3CCN(C(=O)C4CCc5nc(-n6cnnn6)ncc54)C[C@H]3CO2)ccc(F)c1C#N (single isomer, unassigned) [Example 2F] | 390 | –
5 | Cc1c([C@H]2CN3CCN(C(=O)C4CCc5nc(-n6cnnn6)ncc54)C[C@H]3CO2)ccc(F)c1C#N (single isomer, unassigned) [Example 2G] | 270 | 130
6 | Cc1c([C@H]2CN3CCN(C(=O)C4CCc5nc(-n6cnnn6)ncc54)C[C@H]3CO2)ccc(F)c1C#N (single isomer, unassigned) [Example 2H] | 140 | 100
7 | Cc1c([C@H]2CN3CCN(C(=O)C4CCc5cc(-n6cnnn6)ncc54)C[C@H]3CO2)ccc(F)c1C#N (single isomer, unassigned) [Example 35] | 180 | 110
8 | Cc1c([C@@H]2CN3CCN(C(=O)C4CCc5cc(-n6cnnn6)ncc54)C[C@H]3CN2)ccc(F)c1C#N (single isomer, unassigned) [Example 96A] | 200 | 100
9 | Cc1c([C@@H]2CN3CCN(C(=O)C4CCc5cc(-n6cnnn6)ncc54)C[C@H]3CN2)ccc(F)c1C#N (single isomer, unassigned) [Example 96B] | > 1000 | > 1000
10 | Cc1c(C2CN3CCN(C(=O)[C@H]4CCc5nc(-n6cnnn6)ncc54)C[C@@H]3CO2)ccc(F)c1C#N (stereo in doubt) [Example 2A, 6-Fluoro-2-methyl-3-[(3S,9aR)-8-{[(5S)-2-(1H-tetrazol-1-yl)-6,7-dihydro-5H-cyclopenta[d]pyrimidin-5-yl]carbonyl}octahydropyrazino[2,1-c][1,4]oxazin-3-yl]benzonitrile] | 220 | 100
11 | Cc1c([C@H]2CN3CCN(C(=O)[C@@H]4CCc5nc(-n6cnnn6)ncc54)C[C@@H]3CO2)ccc(F)c1C#N [Example 2B, 6-fluoro-2-methyl-3-[(3S,9aR)-8-{[(5R)-2-(1H-tetrazol-1-yl)-6,7-dihydro-5H-cyclopenta[d]pyrimidin-5-yl]carbonyl}octahydropyrazino[2,1-c][1,4]oxazin-3-yl]benzonitrile] | 350 | 100
12 | Cc1c([C@H]2CN3CCN(C(=O)C4CCc5nc(-n6cnnn6)ncc54)C[C@H]3CO2)ccc2c1COC2=O (some centres unmarked) [Example 3] | 250 | 530
13 | Cc1c([C@H]2CN3CCN(C(=O)C4CCc5nc(-n6cnnn6)ccc54)C[C@H]3CO2)ccc(F)c1C#N (some centres unmarked) [Example 4] | 460 | 180
14 | Cc1c([C@H]2CN3CCN(C(=O)C4CCc5nc(-n6cnnn6)ccc54)C[C@H]3CO2)ccc(F)c1C#N (some centres unmarked) [Example 5] | 170 | 100
15 | Cc1c([C@@H]2CN3CCN(C(=O)C4CCc5nc(-n6cnnn6)ccc54)C[C@H]3CO2)ccc(F)c1C#N (some centres unmarked) [Example 6] | 240 | 100
16 | Cc1c([C@@H]2CN3CCN(C(=O)C4CCc5nc(-n6cnnn6)ccc54)C[C@H]3CO2)ccc(F)c1C#N (some centres unmarked) [Example 7] | 140 | 80
17 | Cc1c([C@H]2CN3CCN(C(=O)C4CCCc5nc(-n6cnnn6)ccc54)C[C@H]3CO2)ccc(F)c1C#N (some centres unmarked) [Example 8] | 350 | 240
18 | Cc1c([C@H]2CN3CCN(C(=O)C4CCCc5nc(-n6cnnn6)ccc54)C[C@H]3CO2)ccc(F)c1C#N (some centres unmarked) [Example 9] | 610 | 190
19 | Cc1c([C@@H]2CN3CCN(C(=O)C4CCCc5nc(-n6cnnn6)ccc54)C[C@H]3CO2)ccc(F)c1C#N (some centres unmarked) [Example 10] | 410 | 180
20 | Cc1c([C@@H]2CN3CCN(C(=O)C4CCCc5nc(-n6cnnn6)ccc54)C[C@H]3CO2)ccc(F)c1C#N (some centres unmarked) [Example 11] | 360 | 240
21 | Cc1c([C@@H]2CN3CCN(C(=O)C4CCCc5nc(-n6cnnn6)ccc54)C[C@@H]3CO2)ccc(F)c1C#N (some centres unmarked) [Example 12] | 450 | 160
22 | Cc1c([C@H]2CN3CCN(C(=O)C4CCCc5nc(-n6cnnn6)ccc54)C[C@@H]3CO2)ccc(F)c1C#N (some centres unmarked) [Example 13] | 320 | 260
23 | O=C1OCCc2cc([C@@H]3CN4CCN(C(=O)C5CCCc6nc(-n7cnnn7)ccc65)C[C@H]4CO3)ccc21 (some centres unmarked) [Example 14] | 470 | 210
24 | Cc1c([C@@H]2CN3CCN(C(=O)C4CCc5nc(-n6cnnn6)ccc54)C[C@H]3CO2)csc1C#N (some centres unmarked) [Example 15] | 540 | 60
25 | N#Cc1c(F)ccc([C@@H]2CN3CCN(C(=O)C4CCc5nc(-n6cnnn6)ccc54)C[C@H]3CO2)c1F (some centres unmarked) [Example 18] | 400 | 110
26 | N#Cc1c(F)ccc([C@H]2CN3CCN(C(=O)C4CCc5nc(-n6cnnn6)ccc54)C[C@H]3CO2)c1F (some centres unmarked) [Example 19] | 420 | 90
27 | Cc1c(C#N)cccc1[C@@H]1CN2CCN(C(=O)C3CCc4nc(-n5cnnn5)ccc43)C[C@H]2CO1 (some centres unmarked) [Example 71] | – | 120
28 | Cc1c(C#N)cccc1[C@@H]1CN2CCN(C(=O)C3CCc4cc(-n5cnnn5)ncc43)C[C@@H]2CO1 (some centres unmarked) [Example 94] | 290 | –
29 | O=C1OCc2c1ccc([C@@H]1CN3CCN(C(=O)C4CCc5nc(-n6cnnn6)ccc54)C[C@H]3CO1)c2C1CC1 (some centres unmarked) [Example 95] | 180 | –

Reference: US9062070B2, “Inhibitors of the renal outer medullary potassium channel” (Merck Sharp & Dohme Corp., priority 2011, dated 2015)
